# Measured values reported in patent US20230278972A1, “SUBSTITUTED HALOALKYL SULFONANILIDE HERBICIDES” (FMC Corporation, priority 2020, published 2023).
# Read-outs that look alike come from different tables or passages of the source.
# Key:
# Type in all cases: in vivo
# [1] = test system: ducksalad (Heteranthera limosa); experiment: Test B1 flooded paddy test, ducksalad; details: 250 g ai/ha, Flood, applied to paddy water, 2-leaf stage, visually evaluated after 10 to 14 days
# From the text: A dash (-) response means no test result.
# [2] = test system: Ryegrass, Italian (Italian ryegrass, Lolium multiflorum); experiment: Test A1 preemergence, Ryegrass, Italian
# Procedure, shortened: (§1)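 Test compounds were formulated in a non-phytotoxic solvent mixture containing a surfactant. For preemergence, seeds sown in a loam soil–sand blend received a directed soil spray. For postemergence, potted plants in the same soil, 2 to 10 cm tall at the one- to two-leaf stage, were sprayed.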
# corn (Zea mays) = experiment: Test A1 postemergence, corn; details: Postemergence
# Procedure, shortened: as §1
# [3] = test system: Pigweed, Palmer (palmer amaranth, palmer pigweed, Amaranthus palmeri); experiment: Test A1 preemergence, Pigweed, Palmer
# Procedure, shortened: as §1
# [4] = test system: galium (catchweed bedstraw, Galium aparine); experiment: Test A1 postemergence, galium; details: Postemergence
# Procedure, shortened: (§2)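 Seeds were first planted into a blend of loam soil and sand and given a preemergence directed soil spray. In parallel, pots of the same soil were sown for postemergence application once plants reached 2 to 10 cm and the one- to two-leaf stage. Both used surfactant-containing non-phytotoxic solvent formulations.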
# soybean (Glycine max) = experiment: Test A1 preemergence, soybean
# Procedure, shortened: as §1
# [5] = test system: wheat (Triticum aestivum); experiment: Test A1 postemergence, wheat; details: Postemergence
# Procedure, shortened: as §2
# [6] = test system: blackgrass (Alopecurus myosuroides); experiment: Test A postemergence, blackgrass; details: Alopecurus myosuroides, post-emergence, 240 h, Postemergence, 0 to 100 scale (0 no effect, 100 complete control); for pest or weed control at 125 g/ha: 125 g ai/ha; for pest or weed control at 500 g/ha: 500 g ai/ha
# Procedure, shortened: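 Greenhouse pot test in a loam–sand blend; compounds delivered in a non-phytotoxic solvent carrying a surfactant, applied either as a directed spray to soil at seeding or over seedlings 2 to 10 cm high with one to two leaves.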
# [7] = 31 g ai/ha, 0 to 100 scale (0 no effect, 100 complete control)
# [8] = 125 g ai/ha, 0 to 100 scale, 0 no effect, 100 complete control
# [9] = 31 g ai/ha, 0 to 100 scale (0 no effect, 100 complete control), 10 days
# [10] = visual injury approx. 10 days, read-out: Plant response rating, Blackgrass
# [11] = visual injury vs untreated controls after approx. 10 days, read-out: Blackgrass plant response rating
# [12] = read-out: Plant response rating, Blackgrass
# [13] = visual injury, approx. 10 days, read-out: Plant response rating, Blackgrass
structure (smiles),measurement,setting,value
CCOC(=O)N(c1cc(C(=O)N2CCC(C)CC2)c(C)cc1C)S(=O)(=O)C(F)(F)F [Compound 354],"Plant response rating, Ducksalad (0 to 100 scale, 0 is no effect, 100 is complete control)",[1],60
same,"Plant response rating, Ryegrass, Italian",[2]; [7],20
same,"Plant response rating, Ryegrass, Italian",[2]; [8],70
same,"Plant response rating, Corn",corn (Zea mays); [9],0
same,"Plant response rating, Corn","corn (Zea mays); 125 g ai/ha, 0 to 100 scale",0
same,"Plant response rating, Pigweed, Palmer",[3]; [7],10
same,"Plant response rating, Pigweed, Palmer",[3]; [8],50
same,"Plant response rating, Galium",[4]; [9],40
same,"Plant response rating, Galium","[4]; 125 g ai/ha, 0 to 100 scale",80
same,"Plant response rating, Soybean",soybean (Glycine max); [7],30
same,"Plant response rating, Soybean",soybean (Glycine max); [8],70
same,"Plant response rating, Wheat",[5]; [9],20
same,"Plant response rating, Wheat","[5]; 125 g ai/ha, 0 to 100 scale",40
COCC1CC(c2cc(NS(=O)(=O)C(F)(F)F)c(C)cc2C)=NO1 (stereo not drawn) [Compound 319],"Plant response rating, Ducksalad (0 to 100 scale, 0 is no effect, 100 is complete control)",[1],85
same,"Plant response rating, Ryegrass, Italian",[2]; [7],50
same,"Plant response rating, Ryegrass, Italian",[2]; [8],90
same,"Plant response rating, Corn",corn (Zea mays); [9],10
same,"Plant response rating, Corn","corn (Zea mays); 125 g ai/ha, 0 to 100 scale",80
same,"Plant response rating, Pigweed, Palmer",[3]; [7],70
same,"Plant response rating, Pigweed, Palmer",[3]; [8],80
same,"Plant response rating, Galium",[4]; [9],40
same,"Plant response rating, Galium","[4]; 125 g ai/ha, 0 to 100 scale",70
same,"Plant response rating, Soybean",soybean (Glycine max); [7],20
same,"Plant response rating, Soybean",soybean (Glycine max); [8],30
same,"Plant response rating, Wheat",[5]; [9],70
same,"Plant response rating, Wheat","[5]; 125 g ai/ha, 0 to 100 scale",70
COc1cnn(-c2cc(NS(=O)(=O)C(F)(F)F)c(C)cc2C)c(=O)c1OC [Compound 282],"Plant response rating, Ducksalad (0 to 100 scale, 0 is no effect, 100 is complete control)",[1],65
same,"Plant response rating, Ryegrass, Italian",[2]; [7],0
same,"Plant response rating, Ryegrass, Italian",[2]; [8],40
same,"Plant response rating, Corn",corn (Zea mays); [9],0
same,"Plant response rating, Corn","corn (Zea mays); 125 g ai/ha, 0 to 100 scale",80
same,"Plant response rating, Pigweed, Palmer",[3]; [7],0
same,"Plant response rating, Pigweed, Palmer",[3]; [8],80
same,"Plant response rating, Galium","[4]; 125 g ai/ha, 0 to 100 scale",0
same,"Plant response rating, Soybean",soybean (Glycine max); [7],20
same,"Plant response rating, Soybean",soybean (Glycine max); [8],20
same,"Plant response rating, Wheat",[5]; [9],60
same,"Plant response rating, Wheat","[5]; 125 g ai/ha, 0 to 100 scale",80
"Cc1c(C(=O)N2CCOCC2)cc(N(COC(=O)C(C)(C)C)S(=O)(=O)C(F)(F)F)c(C)c1C [Compound 324, [[(Trifluoromethyl)sulfonyl][2,3,4-trimethyl-5-(4-morpholinylcarbonyl)phenyl]amino]methyl 2,2-dimethylpropanoate]","Plant response rating, Ducksalad (0 to 100 scale, 0 is no effect, 100 is complete control)",[1],80
same,"Plant response rating, Ryegrass, Italian",[2]; [7],20
same,"Plant response rating, Ryegrass, Italian",[2]; [8],100
same,"Plant response rating, Corn",corn (Zea mays); [9],30
same,"Plant response rating, Corn","corn (Zea mays); 125 g ai/ha, 0 to 100 scale",30
same,"Plant response rating, Pigweed, Palmer",[3]; [7],100
same,"Plant response rating, Pigweed, Palmer",[3]; [8],100
same,"Plant response rating, Galium",[4]; [9],50
same,"Plant response rating, Galium","[4]; 125 g ai/ha, 0 to 100 scale",80
same,"Plant response rating, Soybean",soybean (Glycine max); [7],20
same,"Plant response rating, Soybean",soybean (Glycine max); [8],60
same,"Plant response rating, Wheat",[5]; [9],0
same,"Plant response rating, Wheat","[5]; 125 g ai/ha, 0 to 100 scale",30
"Cc1cc(C)c(C2=NOC3COCCC23)cc1NS(=O)(=O)C(F)(F)F (stereo not drawn) [Compound 121, N-[2,4-Dimethyl-5-(3a,4,7,7a-tetrahydro-5H-pyrano[4,3-d]isoxazol-3-yl)phenyl]-1,1,1-trifluoromethanesulfonamide]",pest or weed control at 125 g/ha,[6]; [10],40%
same,pest or weed control at 500 g/ha,[6]; [11],80%
"Cc1cc(C)c(N(COC(=O)C(C)(C)C)S(=O)(=O)C(F)(F)F)cc1C1=NO[C@@H]2CCC[C@H]12 [Compound 100, [[2,4-Dimethyl-5-[(3aR,6aR)-3a,5,6,6a-tetrahydro-4H-cyclopent[d]isoxazol-3-yl]phenyl][(trifluoromethyl)sulfonyl]amino]methyl 2,2-dimethylpropanoate]",pest or weed control at 125 g/ha,[6]; [10],0%
same,pest or weed control at 500 g/ha,[6]; [11],0%
"Cc1cc(C)c(C2=NOC3(CCCCC3)C2)cc1NS(=O)(=O)C(F)(F)F [Compound 197, N-[2,4-Dimethyl-5-(1-oxa-2-azaspiro[4.5]dec-2-en-3-yl)phenyl]-1,1,1-trifluoromethanesulfonamide]",pest or weed control at 125 g/ha,[6]; [12],40%
same,pest or weed control at 500 g/ha,[6]; [11],60%
"Cc1cc(C)c(C2=NO[C@@H]3CCC[C@H]23)cc1NS(=O)(=O)C(F)(F)F [Compound 103, N-[2,4-Dimethyl-5-[(3aR,6aR)-3a,5,6,6a-tetrahydro-4H-cyclopent[d]isoxazol-3-yl]phenyl]-1,1,1-trifluoromethanesulfonamide]",pest or weed control at 125 g/ha,[6]; [10],0%
same,pest or weed control at 500 g/ha,[6]; [11],30%
"Cc1c(NS(=O)(=O)C(F)(F)F)cc(C(=O)N2CCOCC2)c(C)c1F [Compound 190, 1,1,1-Trifluoro-N-[3-fluoro-2,4-dimethyl-5-(4-morpholinylcarbonyl)phenyl]methanesulfonamide]",pest or weed control at 125 g/ha,[6]; [12],10%
same,pest or weed control at 500 g/ha,[6]; [11],40%
"Cc1cc(Cl)c(NS(=O)(=O)C(F)(F)F)cc1C(=O)N1CCCCC1 [Compound 18, N-[2-Chloro-4-methyl-5-(1-piperidinylcarbonyl)phenyl]-1,1,1-trifluoromethanesulfonamide]",pest or weed control at 125 g/ha,[6]; [10],0%
same,pest or weed control at 500 g/ha,[6]; [13],0%
"Cc1cc(C)c(C2=NOC3CCOCC23)cc1NS(=O)(=O)C(F)(F)F (stereo not drawn) [Compound 120, N-[2,4-Dimethyl-5-(3a,6,7,7a-tetrahydro-4H-pyrano[3,4-d]isoxazol-3-yl)phenyl]-1,1,1-trifluoromethanesulfonamide]",pest or weed control at 125 g/ha,[6]; [10],20%
same,pest or weed control at 500 g/ha,[6]; [11],70%
"Cc1cc(Cl)c(NS(=O)(=O)C(F)(F)F)cc1C(=O)N1CCC(F)(F)CC1 [Compound 229, N-[2-Chloro-5-[(4,4-difluoro-1-piperidinyl)carbonyl]-4-methylphenyl]-1,1,1-trifluoromethanesulfonamide]",pest or weed control at 125 g/ha,[6]; [12],20%
same,pest or weed control at 500 g/ha,[6]; [11],70%
"Cc1c(NS(=O)(=O)C(F)(F)F)cc(C(=O)N(C)C)c(C)c1F [Compound 128, 3-Fluoro-N,N,2,4-tetramethyl-5-[[(trifluoromethyl)sulfonyl]amino]benzamide]",pest or weed control at 125 g/ha,[6]; [10],10%
same,pest or weed control at 500 g/ha,[6]; [11],30%
"CCc1cc(-c2cc(NS(=O)(=O)C(F)(F)F)c(C)cc2C)c(=O)n(C)n1 [Compound 34, N-[5-(6-Ethyl-2,3-dihydro-2-methyl-3-oxo-4-pyridazinyl)-2,4-dimethylphenyl]-1,1,1-trifluoromethanesulfonamide]",pest or weed control at 125 g/ha,[6]; [10],0%
same,pest or weed control at 500 g/ha,[6]; [13],0%
"Cc1cc(C)c(N(COC(=O)C(C)(C)C)S(=O)(=O)C(F)(F)F)cc1C1=NOC2(CCCCC2)C1 [Compound 159, [[2,4-Dimethyl-5-(1-oxa-2-azaspiro[4.5]dec-2-en-3-yl)phenyl][(trifluoromethyl)sulfonyl]amino]methyl 2,2-dimethylpropanoate]",pest or weed control at 125 g/ha,[6]; [12],0%
same,pest or weed control at 500 g/ha,[6]; [11],20%
"Cc1cc(C)c(C2=NOC3(CCCC3)C2)cc1NS(=O)(=O)C(F)(F)F [Compound 207, N-[2,4-Dimethyl-5-(1-oxa-2-azaspiro[4.4]non-2-en-3-yl)phenyl]-1,1,1-trifluoromethanesulfonamide]",pest or weed control at 125 g/ha,[6]; [12],20%
same,pest or weed control at 500 g/ha,[6]; [11],60%
"Cc1cc(C)c(C(=O)N2CCC(F)(F)CC2)cc1NS(=O)(=O)C(F)(F)F [Compound 241, N-[5-[(4,4-Difluoro-1-piperidinyl)carbonyl]-2,4-dimethylphenyl]-1,1,1-trifluoromethanesulfonamide]",pest or weed control at 125 g/ha,[6]; [12],0%
same,pest or weed control at 500 g/ha,[6]; [10],80%
"Cc1cc(C)c(N(COC(=O)C(C)(C)C)S(=O)(=O)C(F)(F)F)cc1C1=NOC2(CCCC2)C1 [Compound 140, [[2,4-Dimethyl-5-(1-oxa-2-azaspiro[4.4]non-2-en-3-yl)phenyl][(trifluoromethyl)sulfonyl]amino]methyl 2,2-dimethylpropanoate]",pest or weed control at 125 g/ha,[6]; [10],30%
same,pest or weed control at 500 g/ha,[6]; [11],30%
"Cc1cc(Cl)c(NS(=O)(=O)C(F)(F)F)cc1C(=O)N1CCOCC1 [Compound 16, N-[2-Chloro-4-methyl-5-(4-morpholinylcarbonyl)phenyl]-1,1,1-trifluoromethanesulfonamide]",pest or weed control at 125 g/ha,[6]; [10],50%
same,pest or weed control at 500 g/ha,[6]; [13],40%
